Data: PMC11984392, “EphA2-targeted alpha-particle theranostics for enhancing PDAC treatment” (Theranostics, 2025)
Read-outs that look alike come from different tables or passages of the source. *1 amine or outer side, *2 acyl side, *3 side chain or, on linkers, in order; H or OH if unused. Where a SMILES comes first, the peptide text is derived from it. Bridges are numbered along the chain shown (N, C = ends). [ ]: non-standard residue; d: D form. The star is where a group is joined. TATA = O=C(CC[*:1])N1CN(C(=O)CC[*:2])CN(C(=O)CC[*:3])C1; NOTA = O=C(O)CN1CCN(CC(=O)O)CCN(CC(=O)*)CC1; Hyp = O=C(O)[C@@H]1C[C@@H](O)CN1; hArg = N=C(N)NCCCC[C@H](N)C(=O)O; PEG2 = NCCOCCOCCC(=O)O; Sar = CNCC(=O)O

Assay: Ex vivo biodistribution
Parameters: species or system NSG mice
Conditions: both sexes, NSG, mouse, in vivo, total radioactivity, mean ± SEM (n = 4 or 5); for tissue uptake at 2 h / tissue to tissue ratio at 2 h: 120 min p.i.; for tissue to tissue ratio at 2 h: dimensionless; for tissue uptake at 5 min: 5 min p.i.; for tissue uptake at 0.5 h: 30 min p.i.; for tissue uptake at 1.5 h: 90 min p.i.
Description: Animal studies were performed under Johns Hopkins University Animal Care and Use Committee (ACUC)-approved protocol (Principal investigator: Sridhar Nimmagadda, Ph.D. and Protocol number M021M175). Male and Female NSG mice (5-6 weeks old) were purchased from JHU immunocompromised core and used to establish xenografts by administering cells subcutaneously (top right flank, unless otherwise noted) to form various tumor models within 3-4 weeks. Following cell numbers were used: Panc1, AsPC1, BxPC3 (1 M), Hs766T and SU8686 (2 M), CFPAC and Panc1005 (5 M). Imaging or biodistribution studies (n = 3-5) were conducted on mice with tumor volumes of 100-200 mm^3. The Panc1 orthotopic tumor model was established by surgically implanting a 3-5 mm^3 section of Panc1 tumor xenograft directly onto the pancreas. The implanted tumors were allowed to grow and were ready for imaging after 10 days of implantation.
Mice with 100-200 mm^3 tumor volume were used for ex vivo biodistribution studies. For radiotracer pharmacokinetics and dosimetry studies, mice with Panc1 tumor xenograft received ~80 µCi (2.96 MBq) [^68Ga]AJ201 and were sacrificed at pre-determined time points (5, 30, 60, 90 and 120 min). All other mice were injected with ~50 µCi (1.85 MBq; 0.2 to 0.5 nmol) Ga-68 labeled radiotracer and were sacrificed at 60 min. The selected tissues were collected, weighed, counted, and their %ID/g values calculated for biodistribution analysis. For pharmacokinetics and dosimetry studies, selected tissues included blood, muscle, tumor, thymus, heart, lung, liver, pancreas, stomach, small intestine, large intestine, spleen, adrenals, kidney, bladder, femur, brain and tumor xenografts. For other studies, selected tissues were blood, muscle, tumor, heart, lung, liver, pancreas, small intestine, spleen, kidney.

[1] = iv, i.v., read-out: Adrenals uptake
[2] = iv, i.v., read-out: Bladder uptake
[3] = iv, i.v., read-out: Femur uptake
[4] = iv, i.v., read-out: Kidney uptake
[5] = iv, i.v., read-out: Large Intestine uptake
[6] = iv, i.v., read-out: Small intestine uptake
[7] = iv, i.v., read-out: Spleen uptake

CC(C)C[C@@H]1NC(=O)[C@@H]2CSCCC(=O)N3CN(CN(C3)C(=O)CCSC[C@H](NC(=O)[C@H](CC(=O)O)NC(=O)[C@H](CCCCNC(=N)N)NC(=O)[C@H](C)NC(=O)CNC(=O)CN(C)C(=O)CN(C)C(=O)CN(C)C(=O)[C@H](CCCNC(=N)N)NC(=O)CNC(=O)CCOCCOCCNC(=O)CN3CCN(CC(=O)O)CCN(CC(=O)O)CC3)C(=O)N3C[C@H](O)C[C@H]3C(=O)N[C@@H](CC(C)C)C(=O)N[C@@H](C(C)C)C(=O)N[C@@H](CC(N)=O)C(=O)N3CCC[C@H]3C(=O)N[C@@H](CC(C)C)C(=O)N2)C(=O)CCSC[C@@H](C(N)=O)NC(=O)[C@H](CCCCNC(=N)N)NC(=O)[C@H](Cc2c[nH]c3ccccc23)NC(=O)[C@@H](CC(=O)O)NC(=O)[C@@H]2CCCN2C(=O)[C@H](Cc2c[nH]cn2)NC1=O [[^68Ga]AJ201, metal not drawn] ({NOTA-PEG2}-GR[Sar][Sar][Sar]GA[hArg]DC[Hyp]LVNPLCLHP[dD]W[hArg]C-NH2; linker 10-17-24 via TATA)
tissue uptake at 2 h (iv, 80 uCi, i.v., read-out: Pancreas uptake): 0.36 ± 0.07 %ID/g | tissue uptake at 2 h (iv, 80 uCi, i.v., read-out: Thymus uptake): 1.21 ± 0.52 %ID/g | tissue uptake at 2 h (iv, 80 uCi, i.v., read-out: Tumor uptake): 6.46 ± 0.39 %ID/g | tissue to tissue ratio at 2 h (iv, 80 uCi, read-out: Tumor/Muscle ratio): 24.9 ± 1.93 | tissue to tissue ratio at 2 h (iv, 80 uCi, read-out: Tumor/Pancreas ratio): 18.7 ± 2.39 | tissue to tissue ratio at 2 h (iv, 80 uCi, read-out: Tumor/blood ratio): 8.36 ± 1.85 | tissue uptake at 5 min [1]: 4.91 ± 1.83 %ID/g | tissue uptake at 5 min [2]: 28.1 ± 12.1 %ID/g | tissue uptake at 5 min [3]: 2.77 ± 0.13 %ID/g | tissue uptake at 5 min [4]: 37.5 ± 5.93 %ID/g | tissue uptake at 5 min [5]: 3.67 ± 0.66 %ID/g | tissue uptake at 5 min [6]: 3.25 ± 0.3 %ID/g | tissue uptake at 5 min [7]: 7.95 ± 1.66 %ID/g | tissue uptake at 0.5 h [1]: 2.44 ± 0.46 %ID/g | tissue uptake at 0.5 h [2]: 53.8 ± 30.8 %ID/g | tissue uptake at 0.5 h [3]: 1.36 ± 0.37 %ID/g | tissue uptake at 0.5 h [4]: 56.9 ± 1.26 %ID/g | tissue uptake at 0.5 h [5]: 1.95 ± 0.98 %ID/g | tissue uptake at 0.5 h [6]: 1.16 ± 0.18 %ID/g | tissue uptake at 0.5 h [7]: 3.87 ± 1.1 %ID/g | tissue uptake at 1 h (iv, 60 min p.i., i.v., read-out: Bladder uptake): 48.6 ± 15.5 %ID/g | tissue uptake at 1 h (iv, 60 min p.i., i.v., read-out: Femur uptake): 0.28 ± 0.06 %ID/g | tissue uptake at 1 h (iv, 60 min p.i., i.v., read-out: Kidney uptake): 45.5 ± 2.9 %ID/g | tissue uptake at 1 h (iv, 60 min p.i., i.v., read-out: Large Intestine uptake): 0.15 ± 0.01 %ID/g | tissue uptake at 1 h (iv, 60 min p.i., i.v., read-out: Small intestine uptake): 0.49 ± 0.07 %ID/g | tissue uptake at 1 h (iv, 60 min p.i., i.v., read-out: Spleen uptake): 0.74 ± 0.17 %ID/g | tissue uptake at 1.5 h [1]: 1.85 ± 0.46 %ID/g | tissue uptake at 1.5 h [2]: 18.3 ± 6.35 %ID/g | tissue uptake at 1.5 h [4]: 61.8 ± 11.5 %ID/g | tissue uptake at 1.5 h [5]: 1.46 ± 0.35 %ID/g | tissue uptake at 1.5 h [6]: 0.6 ± 0.15 %ID/g | tissue uptake at 1.5 h [7]: 1.81 ± 0.78 %ID/g | tissue uptake at 2 h [1]: 2.69 ± 0.27 %ID/g | tissue uptake at 2 h [2]: 19 ± 8.08 %ID/g | tissue uptake at 2 h [4]: 52 ± 7.46 %ID/g | tissue uptake at 2 h [5]: 1.02 ± 0.3 %ID/g | tissue uptake at 2 h [6]: 0.45 ± 0.24 %ID/g | tissue uptake at 2 h [7]: 1.55 ± 0.47 %ID/g | tissue uptake at 2 h (iv, i.v., read-out: Stomach with contents uptake): 0.3 ± 0.01 %ID/g | tissue uptake at 1 h (60 min p.i. with blocking (non-radioactive AJ201 pre-administered), read-out: Adrenals uptake): 2.36 ± 1.09 %ID/g | tissue uptake at 1 h (60 min p.i. with blocking (non-radioactive AJ201 pre-administered), read-out: Bladder uptake): 14.4 ± 13.2 %ID/g | tissue uptake at 1 h (60 min p.i. with blocking (non-radioactive AJ201 pre-administered), read-out: Blood uptake): 0.65 ± 0.11 %ID/g | tissue uptake at 1 h (60 min p.i. with blocking (non-radioactive AJ201 pre-administered), read-out: Brain uptake): 0.04 ± 0.001 %ID/g | tissue uptake at 1 h (60 min p.i. with blocking (non-radioactive AJ201 pre-administered), read-out: Femur uptake): 0.38 ± 0.05 %ID/g | tissue uptake at 1 h (60 min p.i. with blocking (non-radioactive AJ201 pre-administered), read-out: Heart uptake): 0.31 ± 0.05 %ID/g | tissue uptake at 1 h (60 min p.i. with blocking (non-radioactive AJ201 pre-administered), read-out: Kidney uptake): 71.3 ± 14.2 %ID/g | tissue uptake at 1 h (60 min p.i. with blocking (non-radioactive AJ201 pre-administered), read-out: Large Intestine uptake): 0.93 ± 0.4 %ID/g | tissue uptake at 1 h (60 min p.i. with blocking (non-radioactive AJ201 pre-administered), read-out: Liver uptake): 0.48 ± 0.07 %ID/g | tissue uptake at 1 h (60 min p.i. with blocking (non-radioactive AJ201 pre-administered), read-out: Lung uptake): 0.8 ± 0.14 %ID/g | tissue uptake at 1 h (60 min p.i. with blocking (non-radioactive AJ201 pre-administered), read-out: Muscle uptake): 0.26 ± 0.03 %ID/g | tissue uptake at 1 h (60 min p.i. with blocking (non-radioactive AJ201 pre-administered), read-out: Pancreas uptake): 0.3 ± 0.03 %ID/g | tissue uptake at 1 h (60 min p.i. with blocking (non-radioactive AJ201 pre-administered), read-out: Small intestine uptake): 0.51 ± 0.08 %ID/g | tissue uptake at 1 h (60 min p.i. with blocking (non-radioactive AJ201 pre-administered), read-out: Spleen uptake): 0.7 ± 0.11 %ID/g | tissue uptake at 1 h (60 min p.i. with blocking (non-radioactive AJ201 pre-administered), read-out: Stomach with contents uptake): 0.19 ± 0.06 %ID/g | tissue uptake at 1 h (60 min p.i. with blocking (non-radioactive AJ201 pre-administered), read-out: Thymus uptake): 2.28 ± 0.53 %ID/g | tissue uptake at 1 h (60 min p.i. with blocking (non-radioactive AJ201 pre-administered), read-out: Tumor uptake): 1.08 ± 0.24 %ID/g | tissue to tissue ratio at 1 h (60 min p.i. with blocking (non-radioactive AJ201 pre-administered), read-out: Tumor/Muscle ratio): 4.4 ± 1.19 | tissue to tissue ratio at 1 h (60 min p.i. with blocking (non-radioactive AJ201 pre-administered), read-out: Tumor/Pancreas ratio): 3.5 ± 0.7 | tissue to tissue ratio at 1 h (60 min p.i. with blocking (non-radioactive AJ201 pre-administered), read-out: Tumor/blood ratio): 1.66 ± 0.37
